According to patent US20250145594A1, “MODULATORS OF THE INTEGRATED STRESS PATHWAY” (Calico Life Sciences LLC, priority 2020, published 2025):

System: ATF4 luciferase reporter in HEK293T cells
Test: ATF4-Luc assay (in vitro model of VWMD)
Assay type: cell-based, human
Conditions: HEK293T cells carrying the ATF4 luciferase reporter, 1 μg/mL tunicamycin, One Glo luminescence
How it was run: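 Tunicamycin (1 μg/mL) stress with co-added compound for 7 hours in HEK293T cells stably carrying an ATF4 5′-UTR–luciferase reporter. EC50 values come from the luminescent signal (One Glo).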

Row | SMILES | EC50 (Homo sapiens, HEK-293T, 7 h) [nM] | EC50 (7 hours) [nM]
1 | O=C(NC12CC(n3cc(-c4ccc(C(F)(F)F)cn4)cn3)(C1)C2)[C@@H]1CNc2cc(Cl)ccc2O1 [Compound 573, (2S)-6-chloro-N-(3-{4-[5-(trifluoromethyl)pyridin-2-yl]-1H-pyrazol-1-yl}bicyclo[1.1.1]pentan-1-yl)-3,4-dihydro-2H-1,4-benzoxazine-2-carboxamide] | 10 to 50 | 
2 | O=C(NC12CC(n3cc(-c4ccc(C(F)(F)F)cn4)cn3)(C1)C2)C1CNc2cc(C(F)(F)F)c(F)cc2O1 (stereo not shown) [Compound 591, 7-fluoro-6-(trifluoromethyl)-N-(3-{4-[5-(trifluoromethyl)pyridin-2-yl]-1H-pyrazol-1-yl}bicyclo[1.1.1]pentan-1-yl)-3,4-dihydro-2H-1,4-benzoxazine-2-carboxamide] | 10 to 50 | 
3 | O=C(NC12CC(n3cc(C(=O)N4CC(COC(F)(F)F)C4)cn3)(C1)C2)[C@H]1C[C@@H](O)c2cc(F)c(F)cc2O1 [Compound 374, (2R,4R)-6,7-difluoro-4-hydroxy-N-[3-(4-{3-[(trifluoromethoxy)methyl]azetidine-1-carbonyl}-1H-pyrazol-1-yl)bicyclo[1.1.1]pentan-1-yl]-3,4-dihydro-2H-1-benzopyran-2-carboxamide] | 50 to 250 | 
4 | O=C(N[C@H]1CC[C@H](n2cc(OCCOC(F)(F)F)cn2)CC1)[C@H]1C[C@@H](O)c2cc(Cl)c(F)cc2O1 [Compound 419, (2R,4R)-6-chloro-7-fluoro-4-hydroxy-N-[(1r,4R)-4-{4-[2-(trifluoromethoxy)ethoxy]-1H-pyrazol-1-yl}cyclohexyl]-3,4-dihydro-2H-1-benzopyran-2-carboxamide] | < 10 | 
5 | CCO[C@H]1CCN(C(=O)c2cnn(C34CC(NC(=O)[C@H]5C[C@@H](O)c6cc(Cl)ccc6O5)(C3)C4)c2)C1 [Compound 359, (2R,4R)-6-chloro-N-(3-{4-[(3S)-3-ethoxypyrrolidine-1-carbonyl]-1H-pyrazol-1-yl}bicyclo[1.1.1]pentan-1-yl)-4-hydroxy-3,4-dihydro-2H-1-benzopyran-2-carboxamide] | 10 to 50 | 
6 | O=C(COc1ccc(Cl)c(F)c1)NC12CC(n3cc(OCCOC(F)(F)F)cn3)(C1)C2 [Compound 617, 2-(4-chloro-3-fluorophenoxy)-N-(3-{4-[2-(trifluoromethoxy)ethoxy]-1H-pyrazol-1-yl}bicyclo[1.1.1]pentan-1-yl)acetamide] |  | < 10
7 | O=C(CO[C@H]1C[C@@H](OC(F)(F)F)C1)N[C@H]1C[C@H]2C[C@@H]1C[C@@H]2NC(=O)[C@@H]1C[C@@H](O)c2cc(Cl)ccc2O1 [Compound 388, (2S,4R)-6-chloro-4-hydroxy-N-[(1R,2S,4R,5S)-5-(2-{[cis-3-(trifluoromethoxy)cyclobutyl]oxy}acetamido)bicyclo[2.2.1]heptan-2-yl]-3,4-dihydro-2H-1-benzopyran-2-carboxamide] | 50 to 250 | 
8 | O=C(NC12CC(c3ccc(OCCOC(F)(F)F)nc3)(C1)C2)[C@H]1C[C@@H](O)c2cc(Cl)ccc2O1 [Compound 450, (2R,4R)-6-chloro-4-hydroxy-N-(3-{6-[2-(trifluoromethoxy)ethoxy]pyridin-3-yl}bicyclo[1.1.1]pentan-1-yl)-3,4-dihydro-2H-1-benzopyran-2-carboxamide] | 50 to 250 | 
9 | O=C(NC12CC(n3cc(-c4ccc(C(F)(F)F)cn4)cn3)(C1)C2)[C@H]1C[C@@H](O)c2cc(Cl)c(Cl)cc2O1 [Compound 567, (2R,4R)-6,7-dichloro-4-hydroxy-N-(3-{4-[5-(trifluoromethyl)pyridin-2-yl]-1H-pyrazol-1-yl}bicyclo[1.1.1]pentan-1-yl)-3,4-dihydro-2H-1-benzopyran-2-carboxamide] | < 10 | 
10 | O=C(NC12CC(n3cc([C@H]4C[C@@H](OC(F)(F)F)C4)cn3)(C1)C2)[C@H]1C[C@@H](O)c2cc(Cl)ccc2O1 [Compound 330, (2R,4R)-6-chloro-4-hydroxy-N-(3-{4-[cis-3-(trifluoromethoxy)cyclobutyl]-1H-pyrazol-1-yl}bicyclo[1.1.1]pentan-1-yl)-3,4-dihydro-2H-1-benzopyran-2-carboxamide] | < 10 | 
11 | O=C(NC12CC(n3cc(-c4ccc(Cl)c(F)c4)nn3)(C1)C2)[C@H]1C[C@@H](O)c2cc(Cl)ccc2O1 [Compound 358, (2R,4R)-6-chloro-N-{3-[4-(4-chloro-3-fluorophenyl)-1H-1,2,3-triazol-1-yl]bicyclo[1.1.1]pentan-1-yl}-4-hydroxy-3,4-dihydro-2H-1-benzopyran-2-carboxamide] | < 10 | 
12 | O=C(NC12CC(n3cc4c(n3)CN(C(=O)COC(F)(F)F)C4)(C1)C2)[C@H]1C[C@@H](O)c2cc(Cl)c(F)cc2O1 [Compound 511, (2R,4R)-6-chloro-7-fluoro-4-hydroxy-N-(3-{5-[(trifluoromethoxy)acetyl]-5,6-dihydropyrrolo[3,4-c]pyrazol-2(4H)-yl}bicyclo[1.1.1]pentan-1-yl)-3,4-dihydro-2H-1-benzopyran-2-carboxamide] | 10 to 50 | 
13 | O=C(NC12CC(n3cc(-c4ccc(OC(F)(F)F)cn4)cn3)(C1)C2)[C@H]1C[C@@H](O)c2cc(C(F)(F)F)ccc2O1 [Compound 403, (2R,4R)-4-hydroxy-N-(3-{4-[5-(trifluoromethoxy)pyridin-2-yl]-1H-pyrazol-1-yl}bicyclo[1.1.1]pentan-1-yl)-6-(trifluoromethyl)-3,4-dihydro-2H-1-benzopyran-2-carboxamide] | < 10 | 
14 | O=C(COc1ccc(Cl)c(F)c1)N[C@H]1CC[C@H](n2cc(-c3ccc(C(F)(F)F)cn3)cn2)CC1 [Compound 598, 2-(4-chloro-3-fluorophenoxy)-N-[(1r,4r)-4-(4-[5-(trifluoromethyl)pyridin-2-yl]-1H-pyrazol-1-yl)cyclohexyl]acetamide] | < 10 | 
15 | COc1ncc(-c2cnn(C34CC(NC(=O)[C@H]5C[C@@H](O)c6cc(Cl)ccc6O5)(C3)C4)c2)cn1 [Compound 320, (2R,4R)-6-chloro-4-hydroxy-N-{3-[4-(2-methoxypyrimidin-5-yl)-1H-pyrazol-1-yl]bicyclo[1.1.1]pentan-1-yl}-3,4-dihydro-2H-1-benzopyran-2-carboxamide] | 10 to 50 | 
16 | O=C(NC12CC(c3ccnc(OCCOC(F)(F)F)n3)(C1)C2)[C@H]1C[C@@H](O)c2cc(Cl)c(F)cc2O1 [Compound 469, (2R,4R)-6-chloro-7-fluoro-4-hydroxy-N-(3-{2-[2-(trifluoromethoxy)ethoxy]pyrimidin-4-yl)bicyclo[1.1.1]pentan-1-yl}-3,4-dihydro-2H-1-benzopyran-2-carboxamide] | < 10 | 
17 | O=C(NC12CC(n3cc([C@@H]4C[C@H]4COC(F)(F)F)nn3)(C1)C2)[C@H]1C[C@@H](O)c2cc(Cl)ccc2O1 (mixture of isomers) [Compound 542, (2R,4R)-6-chloro-4-hydroxy-N-[3-(4-{(1RS,2RS)-2-[(trifluoromethoxy)methyl]cyclopropyl}-1H-1,2,3-triazol-1-yl)bicyclo[1.1.1]pentan-1-yl]-3,4-dihydro-2H-1-benzopyran-2-carboxamide] | < 10 | 
18 | O=C(NC12CC(n3cc(OCCCOC(F)(F)F)cn3)(C1)C2)[C@H]1C[C@@H](O)c2cc(Cl)c(F)cc2O1 [Compound 433, (2R,4R)-6-chloro-7-fluoro-4-hydroxy-N-(3-{4-[3-(trifluoromethoxy)propoxy]-1H-pyrazol-1-yl}bicyclo[1.1.1]pentan-1-yl)-3,4-dihydro-2H-1-benzopyran-2-carboxamide] | < 10 | 
19 | O=C(NC12CC(n3cnc(C(=O)N4CCC[C@@H](OC(F)(F)F)C4)c3)(C1)C2)[C@H]1C[C@@H](O)c2cc(Cl)ccc2O1 [Compound 392, (2R,4R)-6-chloro-4-hydroxy-N-(3-{4-[(3R)-3-(trifluoromethoxy)piperidine-1-carbonyl]-1H-imidazol-1-yl}bicyclo[1.1.1]pentan-1-yl)-3,4-dihydro-2H-1-benzopyran-2-carboxamide] | 250 to 500 | 
20 | O=C(COc1ccc(Cl)c(F)c1)NC12CC(c3ccc(C(=O)N4CC[C@H](OC(F)(F)F)C4)nc3)(C1)C2 [Compound 603, 2-(4-chloro-3-fluorophenoxy)-N-(3-{6-[(3S)-3-(trifluoromethoxy)pyrrolidine-1-carbonyl]pyridin-3-yl}bicyclo[1.1.1]pentan-1-yl)acetamide] | < 10 | 
21 | O=C(NC12CC(n3cc(O[C@H]4C[C@H](OC(F)(F)F)C4)cn3)(C1)C2)[C@H]1C[C@@H](O)c2cc(Cl)ccc2O1 [Compound 587, (2R,4R)-6-chloro-4-hydroxy-N-[3-(4-{[(1r,3R)-3-(trifluoromethoxy)cyclobutyl]oxy}-1H-pyrazol-1-yl)bicyclo[1.1.1]pentan-1-yl]-3,4-dihydro-2H-1-benzopyran-2-carboxamide] | < 10 | 
22 | O=C(NC12CC(n3cc(-c4cnc(C(F)(F)F)c(F)c4)cn3)(C1)C2)[C@H]1C[C@@H](O)c2cc(Cl)ccc2O1 [Compound 347, (2R,4R)-6-chloro-N-(3-{4-[5-fluoro-6-(trifluoromethyl)pyridin-3-yl]-1H-pyrazol-1-yl}bicyclo[1.1.1]pentan-1-yl)-4-hydroxy-3,4-dihydro-2H-1-benzopyran-2-carboxamide] | < 10 | 
23 | O=C(NC12CC(n3cc(NCCCOC(F)(F)F)cn3)(C1)C2)[C@H]1C[C@@H](O)c2cc(Cl)ccc2O1 [Compound 444, (2R,4R)-6-chloro-4-hydroxy-N-[3-(4-{[3-(trifluoromethoxy)propyl]amino}-1H-pyrazol-1-yl)bicyclo[1.1.1]pentan-1-yl]-3,4-dihydro-2H-1-benzopyran-2-carboxamide] | < 10 | 
24 | Cc1ccc(-c2cnn(C34CC(NC(=O)[C@H]5C[C@@H](O)c6cc(Cl)ccc6O5)(C3)C4)c2)nc1 [Compound 554, (2R,4R)-6-chloro-4-hydroxy-N-{3-[4-(5-methylpyridin-2-yl)-1H-pyrazol-1-yl]bicyclo[1.1.1]pentan-1-yl}-3,4-dihydro-2H-1-benzopyran-2-carboxamide] | < 10 | 
25 | O=C(NC12CC(n3cc(OCCOC(F)(F)F)cn3)(C1)C2)[C@@H]1C[C@@H](O)c2cc(Cl)c(F)cc2O1 [Compound 432, (2S,4R)-6-chloro-7-fluoro-4-hydroxy-N-(3-{4-[2-(trifluoromethoxy)ethoxy]-1H-pyrazol-1-yl}bicyclo[1.1.1]pentan-1-yl)-3,4-dihydro-2H-1-benzopyran-2-carboxamide] | < 10 | 
